Results reported in the SangsterLogP compilation.

With `CCc1cccnc1` the logP was 1.66.
`CCOC(=O)Nc1cccc(OC(=O)Nc2ccccc2)c1` showed a logP of 3.39.
`CCOc1cccnc1` showed a logP of 1.44.
`COc1cccc(N(C)C(=S)Oc2cccc(C(C)(C)C)c2)n1` gave a logP of 5.18.
For `N#Cc1cccc(C#N)c1`, the logP was 0.8.
Molecule `CCC(C)OC(C)=O` (configuration not stated) has a logP of 1.72.
In the case of `O=C1C=C(NCCO)C(=O)c2ccccc21`, the logP is reported as 1.23.
Molecule `N#Cc1ccccc1N` has a logP of 1.4.
With `FC(F)(F)CCc1ccccc1` the logP was 3.31.
For `CCSC`, the logP was 1.54.
With `COCC(O)Cn1cc([N+](=O)[O-])nn1` (configuration not stated) the logP was -0.36.
Work on `Cn1c(N)nc2ccc(Cl)cc21` yielded a logP of 2.01.
In the case of `CN(C)C(=O)SCCCCOc1ccccc1`, the logP is reported as 3.28.
With `CCCOP(OCCC)OCCC` the logP was 2.26.
Work on `CC(=O)N(C)Nc1ccccc1` yielded a logP of 1.31.
`O=CN1CCCC1` showed a logP of -0.32.
`CS(C)(=O)=O` gave a logP of -1.34.
For `CCCCCCCCn1cc(C)c(=O)[nH]c1=O`, the logP was 3.04.
In the case of `CCS(=O)(=O)CC`, the logP is reported as -0.59.
`CC(C)C(=O)C(C)C` showed a logP of 1.86.
In the case of `Oc1ccc(CCNCCCCCCNCCc2ccccc2)cc1O`, the logP is reported as 1.88.
Work on `CCC(C)Cl` (configuration not stated) yielded a logP of 2.33.
Molecule `O=C(CCBr)N1CCN(C(=O)CCBr)CC1` has a logP of 0.42.
With `CC(C)(C)C1=Nc2ccc(Cl)cc2S(=O)(=O)N1` the logP was 2.4.
For `O=C(N/N=C/c1ccc[nH]1)Nc1ccccc1`, the logP was 2.96.
Molecule `O/N=C\c1ccc(F)cc1` has a logP of 2.03.
For `CC1CN1C1=C(F)C(=O)C(N2CC2C)=C(F)C1=O` (configuration not stated), the logP was 1.61.
For `Nc1ccn(C2CC(CO)C(O)C2O)c(=O)n1` (configuration not stated), the logP was -2.41.
Molecule `O=[N+]([O-])c1ccc(O)c(O)c1` has a logP of 1.66.
Molecule `Cc1[nH]oc(=O)c1/N=N/c1ccccc1Cl` has a logP of 2.6.
`[O-][n+]1ccccc1` gave a logP of -1.2.
For `CCC1OC(=O)C(C)C(OC2CC(C)(OC)C(O)C(C)O2)C(C)C(OC2OCC(O)C(N=[N+]=[N-])C2O)C(C)(O)CC(C)C(=O)CC(O)C1(C)O` (configuration not stated), the logP was 1.76.
Work on `O=[N+]([O-])c1ccco1` yielded a logP of 0.66.
`O=C1CCc2cccc3c2N1CC3` showed a logP of 1.6.
Molecule `COc1ccc2c(c1)nc(N)n2C` has a logP of 0.87.
Work on `COCC(C)OC` (configuration not stated) yielded a logP of -0.09.
In the case of `O=C(NCCO)C(F)(F)Cn1cnc([N+](=O)[O-])n1`, the logP is reported as -0.77.
Molecule `Clc1cc(Cl)nc(-c2ccccc2)n1` has a logP of 4.17.
For `CCCCC(=O)OC`, the logP was 1.96.
Molecule `CCNC(=O)c1ccco1` has a logP of 0.61.
Molecule `CCCSP(=O)(OCC)SCCC` has a logP of 3.59.
`CN(C)N=Nc1nccs1` showed a logP of 1.27.
Work on `Nc1n[nH]c(Cc2ccc([N+](=O)[O-])o2)n1` yielded a logP of 1.28.
For `c1ccc(-c2cnc(-c3ccccc3)o2)cc1`, the logP was 4.67.
`O=C(COC(=O)c1ccccc1)NC1CCCCC1` gave a logP of 2.81.
With `COC(=O)Nc1c(C(C)C)cccc1C(C)C` the logP was 2.2.
In the case of `CCOc1ccc(C(C)(C)COCc2cccc(Oc3ccccc3)c2)cc1`, the logP is reported as 7.05.
`CC(C)C(C)OCc1cn(C)c(C=NO)n1` (configuration not stated) showed a logP of 2.53.
For `CCC(=O)OC`, the logP was 0.82.
`O=C1C=CC(=O)N1c1ccccc1` showed a logP of 1.09.
With `CCC1=C(N2CC2)C(=O)C(C)=C(N2CC2)C1=O` the logP was 1.35.
For `CNC1=C(N2CC2)C(=O)C(NC)=C(N2CC2)C1=O`, the logP was 0.13.
With `COC(=O)CC(C)C` the logP was 1.82.
`COc1ccc(CC#N)cc1` showed a logP of 1.7.
Work on `NC(=O)C(Cl)Cl` yielded a logP of 0.19.
For `CCC(C)c1cc([N+](=O)[O-])cc(C(C)CC)c1O` (configuration not stated), the logP was 4.8.
For `FCC1CO1` (configuration not stated), the logP was -0.16.
In the case of `O=C(NCCCO)C(F)(F)Cn1ccnc1[N+](=O)[O-]`, the logP is reported as -0.64.
For `CC(C)Nc1nc(N)nc(SC(F)F)n1`, the logP was 2.68.
In the case of `CC(C)NC(C)C`, the logP is reported as 1.4.
With `Nc1cc(C(F)(F)F)ccc1Cl` the logP was 3.06.
With `CC(C)c1ccc(C(O)C(CO)NC(=O)C(Cl)Cl)cc1` (configuration not stated) the logP was 2.24.
For `CNC(=S)N(C)C`, the logP was 0.1.
For `COP(=O)(OC)OC(C)=CC(=O)N(C)C`, the logP was 0.
Work on `CCCOC` yielded a logP of 1.21.
With `CC(=O)OC[C@H]1O[C@@H](n2ncc(=O)[nH]c2=O)[C@H](OC(C)=O)[C@@H]1OC(C)=O` the logP was -0.2.
`COC(=O)CCCC(=O)OC` gave a logP of 0.62.
Work on `CC(C)(C)NCC(O)COCC=Cc1ccccc1` (configuration not stated) yielded a logP of 2.69.
With `Cc1cscn1` the logP was 0.97.
Work on `CCCCSP(=O)(SCCCC)SCCCC` yielded a logP of 3.23.
For `O=C1C(Cl)C(CCl)CN1c1cccc(C(F)(F)F)c1` (configuration not stated), the logP was 3.36.
Molecule `C1CCCCCC1` has a logP of 4.
Molecule `COC(=O)CC#N` has a logP of -0.47.
In the case of `CCOC(=O)C(Cl)(Cl)Cl`, the logP is reported as 2.39.
`Nc1nc2cc(Cl)ccc2[nH]1` showed a logP of 1.88.
`CCCN(CCC)c1c([N+](=O)[O-])cc(S(N)(=O)=O)cc1[N+](=O)[O-]` gave a logP of 3.73.
Molecule `COC=O` has a logP of 0.03.
`CN(C)C1=CC(=O)c2ccccc2C1=O` gave a logP of 1.9.
In the case of `O=C1C=C(N2CC2)C(=O)C=C1N1CC1`, the logP is reported as 0.18.
Work on `Nc1ccc([C@@H](O)[C@@H](CO)NC(=O)C(Cl)Cl)cc1` yielded a logP of -0.29.
With `CN(C(=S)c1ccccc1)c1ccccc1` the logP was 3.12.
With `CC(Cl)[N+](=O)[O-]` (configuration not stated) the logP was 1.1.
